BindingDB's records for doi:10.1016/j.bmcl.2005.03.024 (Johnson & Johnson Pharmaceutical, 2005)

Target: Cyclin-dependent kinase/G2/mitotic-specific cyclin- 1 (Homo sapiens, UniProt P06493)
Experiment: Kinase Inhibition Assay
Procedure: The enzyme was assayed with a biotinylated peptide substrate and test compounds in the presence of 10 uM ATP/[gamma-33P]ATP in a streptavidin coated FlashPlate (Perkin-Elmer, Boston, MA). Inhibition of the enzymatic activity due to the compound was measured by observing a reduced amount of 33P-gamma-ATP incorporated into the immobilized peptide relative to untreated controls. Linear regression analysis of the percent of inhibition by the test compound was used to calculate IC50 values.

Cyclin-dependent kinase/G2/mitotic-specific cyclin- 1, sequence (P06493 whole entry): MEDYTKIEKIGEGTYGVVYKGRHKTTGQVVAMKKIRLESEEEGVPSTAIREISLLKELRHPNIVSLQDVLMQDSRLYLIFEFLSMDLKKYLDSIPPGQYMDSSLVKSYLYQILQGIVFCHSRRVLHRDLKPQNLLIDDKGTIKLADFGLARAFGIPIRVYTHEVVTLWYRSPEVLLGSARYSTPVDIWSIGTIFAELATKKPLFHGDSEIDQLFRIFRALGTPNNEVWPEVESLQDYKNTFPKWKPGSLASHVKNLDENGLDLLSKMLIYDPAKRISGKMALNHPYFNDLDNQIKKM
Cyclin-dependent kinase/G2/mitotic-specific cyclin- 1, sequence (P14635 whole entry, further chain): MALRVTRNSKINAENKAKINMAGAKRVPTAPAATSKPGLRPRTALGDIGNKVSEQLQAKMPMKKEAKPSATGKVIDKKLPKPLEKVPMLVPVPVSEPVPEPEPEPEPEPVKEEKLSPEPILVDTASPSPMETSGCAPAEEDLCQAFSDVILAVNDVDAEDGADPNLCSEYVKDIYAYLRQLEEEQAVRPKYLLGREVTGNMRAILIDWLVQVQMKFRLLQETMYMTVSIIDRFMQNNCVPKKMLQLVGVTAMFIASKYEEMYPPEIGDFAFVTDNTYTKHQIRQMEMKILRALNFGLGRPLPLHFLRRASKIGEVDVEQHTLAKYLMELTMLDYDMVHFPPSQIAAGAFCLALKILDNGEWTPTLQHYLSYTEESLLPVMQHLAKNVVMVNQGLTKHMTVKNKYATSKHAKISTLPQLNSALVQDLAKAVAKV

SMILES	IC50 [µM]	IC50 (pH 8, 30 °C) [µM]
CCN(CC)S(=O)(=O)c1ccc(Nc2ccc(C(=O)c3ccccc3)c(N)n2)cc1 [4-[(6-amino-5-benzoylpyridin-2-yl)amino]-N,N-diethylbenzene-1-sulfonamide]	> 100	
Nc1nc(Nc2ccc(S(=O)(=O)N(Cc3ccccc3)Cc3ccccc3)cc2)ccc1C(=O)c1c(F)cccc1F [4-({6-amino-5-[(2,6-difluorophenyl)carbonyl]pyridin-2-yl}amino)-N,N-dibenzylbenzene-1-sulfonamide]	> 10	
Nc1nc(Nc2ccccc2NS(=O)(=O)c2ccccc2)ccc1C(=O)c1c(F)cccc1F [N-[2-({6-amino-5-[(2,6-difluorophenyl)carbonyl]pyridin-2-yl}amino)phenyl]benzenesulfonamide]		> 100
CC(=O)Nc1ccccc1Nc1ccc(C(=O)c2c(F)cccc2F)c(N)n1 [N-[2-({6-amino-5-[(2,6-difluorophenyl)carbonyl]pyridin-2-yl}amino)phenyl]acetamide]		> 100
Nc1ccc(C(=O)c2ccco2)c(N)n1 [3-(furan-2-ylcarbonyl)pyridine-2,6-diamine]	> 100	
Nc1ccc(C(=O)c2cccs2)c(N)n1 [3-(thiophen-2-ylcarbonyl)pyridine-2,6-diamine]	> 100	
Nc1nc(Nc2ccccc2[N+](=O)[O-])ccc1C(=O)c1c(F)cccc1F [5-[(2,6-difluorophenyl)carbonyl]-2-N-(2-nitrophenyl)pyridine-2,6-diamine]		> 10
Nc1nc(Nc2ccccc2NC(=O)c2ccccc2)ccc1C(=O)c1c(F)cccc1F [N-[2-({6-amino-5-[(2,6-difluorophenyl)carbonyl]pyridin-2-yl}amino)phenyl]benzamide]		> 100
CCN(CC)S(=O)(=O)c1ccc(Nc2ccc(C(=O)c3ccco3)c(N)n2)cc1 [4-{[6-amino-5-(furan-2-ylcarbonyl)pyridin-2-yl]amino}-N,N-diethylbenzene-1-sulfonamide]	> 100	
